In US20180000085A1, “USE OF PICOLINAMIDE COMPOUNDS WITH FUNGICIDAL ACTIVITY” (DOW AGROSCIENCES LLC, priority 2014, published 2018):

How the values were obtained:
Puccinia triticina = assay: Wheat brown rust (PUCCRT) disease control on wheat seedlings; type: in vivo; set-up: key to PUCCRT 3DC, HV activity at 100 ppm (% control rating) / PUCCRT disease control, 3DC / PUCCRT 1DP disease control rating, HV activity / PUCCRT 3DC disease control rating, HV activity / PUCCRT 3DC, LV activity at 125.1 g/H (% Control rating) / PUCCRT 1DP, LV activity at 125.1 g/H (% Control rating) / PUCCRT 3DC disease control rating, LV activity at 125.1 g/H / PUCCRT 1DP disease control rating, LV activity at 125.1 g/H / PUCCRT 3DC disease control rating, HV activity at 100 ppm / PUCCRT 1DP disease control rating, HV activity at 100 ppm / HV activity at 100 ppm PUCCRT 3DC (disease control rating) / LV activity at 125.1 g/H PUCCRT 1DP (disease control rating) / LV activity at 125.1 g/H PUCCRT 3DC (disease control rating): A: > 80; B: ≤ 80; C: Not Tested; D: No Activity Observed in the Reported Assay; conditions: for PUCCRT 1DP disease control rating, LV activity at 125.1 g/H: 1 day protectant; for PUCCRT 3DC disease control rating, LV activity at 125.1 g/H: 3 day curative
Zymoseptoria tritici = assay: Leaf blotch of wheat (SEPTTR) disease control on wheat seedlings; type: in vivo; set-up: key to SEPTTR 1DP, HV activity at 100 ppm (% control rating) / SEPTTR 3DC, HV activity at 100 ppm (% control rating) / SEPTTR disease control, 1DP / SEPTTR disease control, 3DC / SEPTTR 1DP disease control rating, HV activity / SEPTTR 3DC disease control rating, HV activity / SEPTTR 3DC, LV activity at 125.1 g/H (% Control rating) / SEPTTR 1DP, LV activity at 125.1 g/H (% Control rating) / SEPTTR 1DP disease control rating, LV activity at 125.1 g/H / SEPTTR 3DC disease control rating, LV activity at 125.1 g/H / SEPTTR 3DC disease control rating, HV activity at 100 ppm / SEPTTR 1DP disease control rating, HV activity at 100 ppm / HV activity at 100 ppm SEPTTR 3DC (disease control rating) / HV activity at 100 ppm SEPTTR 1DP (disease control rating) / LV activity at 125.1 g/H SEPTTR 1DP (disease control rating) / LV activity at 125.1 g/H SEPTTR 3DC (disease control rating): A: > 80; B: ≤ 80; C: Not Tested; D: No Activity Observed in the Reported Assay; conditions: for SEPTTR 1DP disease control rating, LV activity at 125.1 g/H: 1 day protectant; for SEPTTR 3DC disease control rating, LV activity at 125.1 g/H: 3 day curative
[1] = low volume application, 125.1 g/H, 1 Day Protectant
[2] = low volume application, 125.1 g/H, 3 Day Curative
[3] = low volume application, 125.1 g/H

With `COc1ccnc(C(=O)N[C@@H](C)C(=O)O[C@@H](C)[C@H](Oc2ccccc2)C(C)(C)C)c1OC(C)=O` [Cmpd 1065] the “LV activity at 125.1 g/H PUCCRT 1DP (disease control rating)” value (Puccinia triticina; low volume application, 125.1 g/H, 1 Day Protectant, wheat brown rust) was “A (> 80)”, the “LV activity at 125.1 g/H PUCCRT 3DC (disease control rating)” value (Puccinia triticina; low volume application, 125.1 g/H, 3 Day Curative, wheat brown rust) was “A (> 80)” and the “LV activity at 125.1 g/H SEPTTR 1DP (disease control rating)” value (Zymoseptoria tritici; low volume application, 125.1 g/H, 1 Day Protectant, wheat leaf blotch) was “B (≤ 80)”. The “LV activity at 125.1 g/H SEPTTR 3DC (disease control rating)” value (Zymoseptoria tritici; low volume application, 125.1 g/H, 3 Day Curative, wheat leaf blotch) was “A (> 80)”.
In the case of `COc1ccnc(C(=O)N[C@@H](C)C(=O)O[C@@H](C)[C@H](Oc2cccc(Cl)c2)c2ccccc2)c1OC(C)=O` [Cmpd 638], the “PUCCRT 1DP, LV activity at 125.1 g/H (% Control rating)” value (“PUCCRT 1DP … (% Control rating)” for short) (Puccinia triticina; [1]) is reported as “A (> 80)”, the “PUCCRT 3DC, LV activity at 125.1 g/H (% Control rating)” value (“PUCCRT 3DC … (% Control rating)” below) (Puccinia triticina; [2]) is reported as “B (≤ 80)” and the “SEPTTR 1DP, LV activity at 125.1 g/H (% Control rating)” value (shortened to “SEPTTR 1DP … (% Control rating)”) (Zymoseptoria tritici; [1]) is reported as “A (> 80)”. The “SEPTTR 3DC, LV activity at 125.1 g/H (% Control rating)” value (“SEPTTR 3DC … (% Control rating)” for short) (Zymoseptoria tritici; [2]) was “A (> 80)”.
With `CC(C)C[C@@H](Oc1cc(F)ccc1F)[C@H](C)OC(=O)[C@H](C)NC(=O)c1ncccc1O` [Cmpd 1036] the “HV activity at 100 ppm PUCCRT 1DP (disease control rating)” value (Puccinia triticina; HV application, 100 ppm, 1 Day Protectant, wheat brown rust) was “A (> 80)”, the “HV activity at 100 ppm PUCCRT 3DC (disease control rating)” value (Puccinia triticina; HV application, 100 ppm, 3 Day Curative, wheat brown rust) was “B (≤ 80)” and the “HV activity at 100 ppm SEPTTR 1DP (disease control rating)” value (Zymoseptoria tritici; HV application, 100 ppm, 1 Day Protectant, wheat leaf blotch) was “B (≤ 80)”. For the same compound, the “HV activity at 100 ppm SEPTTR 3DC (disease control rating)” value (Zymoseptoria tritici; HV application, 100 ppm, 3 Day Curative, wheat leaf blotch) was “D”.
In the case of `CC[C@H](OC(=O)[C@H](C)NC(=O)c1nccc(OC)c1OCOC(C)=O)[C@H](Oc1ccccc1)C(C)C` [Cmpd 877], the “PUCCRT 1DP disease control rating, LV activity at 125.1 g/H” value (Puccinia triticina; [3]) is reported as “A (> 80)”, the “PUCCRT 3DC disease control rating, LV activity at 125.1 g/H” value (Puccinia triticina; [3]) is reported as “A (> 80)” and the “SEPTTR 1DP disease control rating, LV activity at 125.1 g/H” value (Zymoseptoria tritici; [3]) is reported as “B (≤ 80)”. For the same compound, the “SEPTTR 3DC disease control rating, LV activity at 125.1 g/H” value (Zymoseptoria tritici; [3]) was “B (≤ 80)”.
In the case of `CCC(CC)C(Oc1ccc(Cl)cc1Cl)C(C)OC(=O)C(CC(C)C)NC(=O)c1nccc(OC)c1O` (stereo not shown) [Cmpd 430], the “PUCCRT 1DP disease control rating, HV activity” value (Puccinia triticina; HV application at 100 ppm, 1 Day Protectant, wheat brown rust) is reported as “B (≤ 80)”, the “PUCCRT 3DC disease control rating, HV activity” value (Puccinia triticina; HV application at 100 ppm, 3 Day Curative, wheat brown rust) is reported as “D” and the “SEPTTR 1DP disease control rating, HV activity” value (Zymoseptoria tritici; HV application at 100 ppm, 1 Day Protectant, wheat leaf blotch) is reported as “D”. For the same compound, the “SEPTTR 3DC disease control rating, HV activity” value (Zymoseptoria tritici; HV application at 100 ppm, 3 Day Curative, wheat leaf blotch) was “D”.
`COc1ccnc(C(=O)NC(C)C(=O)OC(C)(C)C(Oc2ccccc2)C(C)C)c1OCOC(C)=O` (mixture of isomers) [Cmpd 903] was tested, and the “PUCCRT 1DP disease control rating, LV activity at 125.1 g/H” value (Puccinia triticina; [3]) was “B (≤ 80)”, the “PUCCRT 3DC disease control rating, LV activity at 125.1 g/H” value (Puccinia triticina; [3]) was “D” and the “SEPTTR 1DP disease control rating, LV activity at 125.1 g/H” value (Zymoseptoria tritici; [3]) was “B (≤ 80)”. For the same compound, the “SEPTTR 3DC disease control rating, LV activity at 125.1 g/H” value (Zymoseptoria tritici; [3]) was “A (> 80)”.
With `COc1ccnc(C(=O)N[C@@H](C)C(=O)O[C@@H](C)[C@@H](OC(=O)c2ccccc2)C(C)C)c1OCOC(C)=O` [Cmpd 851] the “PUCCRT 1DP disease control rating, LV activity at 125.1 g/H” value (Puccinia triticina; [3]) was “B (≤ 80)”, the “PUCCRT 3DC disease control rating, LV activity at 125.1 g/H” value (Puccinia triticina; [3]) was “B (≤ 80)” and the “SEPTTR 1DP disease control rating, LV activity at 125.1 g/H” value (Zymoseptoria tritici; [3]) was “D”. The “SEPTTR 3DC disease control rating, LV activity at 125.1 g/H” value (Zymoseptoria tritici; [3]) was “D”.
For `COc1ccnc(C(=O)NC(C)C(=O)OC(C)C(Oc2ccc(Cl)cc2Cl)c2ccccc2)c1OC(C)=O` (stereo not shown) [Cmpd 867], the “PUCCRT 1DP disease control rating, LV activity at 125.1 g/H” value (Puccinia triticina; [3]) was “A (> 80)”, the “PUCCRT 3DC disease control rating, LV activity at 125.1 g/H” value (Puccinia triticina; [3]) was “B (≤ 80)” and the “SEPTTR 1DP disease control rating, LV activity at 125.1 g/H” value (Zymoseptoria tritici; [3]) was “A (> 80)”. For the same compound, the “SEPTTR 3DC disease control rating, LV activity at 125.1 g/H” value (Zymoseptoria tritici; [3]) was “A (> 80)”.
`CC[C@H](Cc1ccc(F)cc1)[C@@H](Oc1ccccc1)[C@H](C)OC(=O)[C@H](C)NC(=O)c1nccc(OC)c1OCOC(C)=O` [Cmpd 471] was tested, and the “PUCCRT 1DP … (% Control rating)” value (Puccinia triticina; [1]) was “A (> 80)”, the “PUCCRT 3DC … (% Control rating)” value (Puccinia triticina; [2]) was “A (> 80)” and the “SEPTTR 1DP … (% Control rating)” value (Zymoseptoria tritici; [1]) was “A (> 80)”. For the same compound, the “SEPTTR 3DC … (% Control rating)” value (Zymoseptoria tritici; [2]) was “A (> 80)”.
With `CCC(CC)[C@@H](Oc1cccc(-c2ccccc2)c1)[C@H](C)OC(=O)[C@@H](NC(=O)c1nccc(OC)c1OCOC(C)=O)C(C)C` [Cmpd 654] the “PUCCRT 1DP … (% Control rating)” value (Puccinia triticina; [1]) was “A (> 80)”, the “PUCCRT 3DC … (% Control rating)” value (Puccinia triticina; [2]) was “D” and the “SEPTTR 1DP … (% Control rating)” value (Zymoseptoria tritici; [1]) was “B (≤ 80)”. The “SEPTTR 3DC … (% Control rating)” value (Zymoseptoria tritici; [2]) was “D”.
